Tests used:
Assay in all cases: antifungal disc diffusion assay
Format in all cases: cell-based
[1] = tested on: Ceratocystis ulmi; conditions: filamentous fungus Ceratocystis ulmi
Procedure: (§1) The antifungal activity of the compounds may be detected in an antifungal assay employing disc diffusion methods against a panel of representative yeasts, filamentous fungi (molds) and bacteria.
(§2) For carrying out the assay, seeded assay plates are prepared in the following manner according to the type of assay strain.
(§3) Inocula for filamentous fungi are prepared by scraping the surface of stock plates maintained on potato dextrose agar with a moistened sterile dacron swab. The spores and mycelia are then suspended in 10 milliliters of sterile potato dextrose broth and adjusted to 70 percent transmission at 660 nm.
(§4) The seeded agar media thus prepared are dispensed into Petri dishes for assays (11 milliliters per dish).
(§5) The samples to be tested for production of antifungal agent are applied to 6.2 mm. filter paper discs (25 microliter/disc) and air dried at 24° C. When the sample to be tested is crude broth, it may be centrifuged prior to application. The discs bearing the material to be tested are then applied employing sterile conditions to be seeded assay plates and the sample rewet with 25 percent sterile aqueous dimethysulfoxide (25 μl/disc). The assay plates are then incubated at either 28° C. or 37° C. for 24 hours.
(§6) Following incubation, the inhibition zones are measured and recorded. The measurements are made from the extreme edge where growth differs from the background zone. […]

[2] = tested on: Alternaria solani; conditions: filamentous fungus Alternaria solani
Procedure: as §1, §2, §3, §4, §5, §6

[3] = tested on: Candida albicans
Procedure: as §1, §2
(§7) Inocula for yeasts and Streptomyces strains are prepared from overnight broth cultures then diluted into potato dextrose […] to a final concentration of either 40 percent or 70 percent transmission at 660 nm.
(§8) For strains of Candida albicans and Saccharomyces cerevisiae, sterile saline is employed in place of potato dextrose broth. Assay plates are prepared by diluting the inoculum into appropriate molten agar medium, cooled to 45° C. to obtain a final concentration of 4 percent.
as §4, §5
(§9) Following incubation, the inhibition zones are measured and recorded. The measurements are made from the extreme edge where growth differs from the background zone. The zones are noted as to appearance as fuzzy edge and clear center, hazy throughout, slightly hazy, very hazy or ringed.

[4] = tested on: Candida parapsilosis
Procedure: as §1, §2, §7, §4, §5, §9

[5] = tested on: Candida neoformans
Procedure: as §1, §2, §7, §4, §5, §9

[6] = tested on: Candida pseudotropicalis
Procedure: as §1, §2, §7, §4, §5, §9

[7] = tested on: Saccharomyces cerevisiae
Procedure: as §1, §2, §7, §8, §4, §5, §9

[8] = tested on: Cryptococous neoformans
Procedure: as §1, §2, §7, §4, §5, §9

Structure (SMILES)	antifungal activity [1]	antifungal activity [2]	antifungal activity [3]	antifungal activity [4]	antifungal activity [5]	antifungal activity [6]	antifungal activity [7]	antifungal activity [8]
CCCCCCC(=O)CCCCCC/C=C/C(O)C(O)C(O)C(N)(CO)C(=O)O (stereo not drawn) [Compound IA]	very strong antifungal activity	very strong antifungal activity	active	active	active	active	–	–
CCCCCCC(=O)CCCCCC/C=C/C(O)C(O)C(O)C(C)(N)C(=O)O (stereo not drawn) [Compound IB]	–	–	active	–	–	–	active	active

— patent US5233062A, “Antibiotic eicosenoic acids” (Merck & Co., Inc., priority 1992, dated 1993)
